Data on 14 molecules can be found in US8481495B2 (TetraLogic Pharmaceuticals Corporation, priority 2009, dated 2013).

In assay [1] the test system is SK-OV-3 cells. Put plainly: MTT cell growth inhibition assay in ovarian cancer cell line SK-OV-3. Type of assay: cell-based. The conditions noted are these: Homo sapiens, 72 hrs incubation, read-out: SKOV3, nM (CC50, concentration giving 50% cell survival, as range). Here is the method: Compounds of the invention also were tested for their ability to inhibit the growth of an ovarian cancer cell line, SK-OV-3. A known assay previously used for measuring cell growth (as described in Hansen, M. B., Nielsen, S. E., and Berg, K. (1989) J. Immunol. Methods 119, 203-210 and incorporated herein by reference in its entirety) was used. Briefly, SK-OV-3 cells are seeded in 96-well plates in McCoy's medium containing 10% fetal bovine serum albumin (5,000 per well) and incubated overnight at 37° C. The next day, test compounds are added at various concentrations (0.003-10 μM) and the plates are incubated at 37° C. for an additional 72 hrs. This incubation time was considered to be optimal for measuring inhibitory effects of the different compounds tested. 50 microliters of 5 mg/mL MTT reagent is added to each well and the plates are incubated at 37° C. for another three (3) hours. At the end of the three (3) hour incubation period, 50 microliters of DMSO is added to each well to dissolve cells and the optical density (OD) of the wells is measured with a microplate reader (Victor^2 1420™, Wallac, Finland) at 535 nm. Cell survival (CS) was calculated using the following equation: CS=(OD treated well/mean OD control wells)×100%.
The CC50 (reported in the following tables), is defined as the drug concentration that results in 50% cell survival (CS), and is derived by calculating the point where the dose-response curve crosses the 50% CS point using GraphPad Prism® graphing software. The reported CC50 values are supplied as ranges (A=<0.1 μM, B=0.1 μM to 1 μM, C=>1 μM to 10 μM, D=>10 μM).

Assay [2] concerns the target T1, cIAP-1 BIR-3 (Homo sapiens, UniProt Q13490).
T1 construct: 40 nM of the respective IAP BIR3
The experiment in a line: Fluorescence polarization binding to cIAP-1 BIR-3 with labeled peptide AbuRPF-K(5-Fam)-NH2. The conditions noted are these: cIAP-1 BIR-3, 40 nM BIR3, 5 nM labeled peptide, 15 min RT, pH 7.5; read-out: cIAP1, nM (binding affinity KD, as range). Here is the method: (§1) The binding affinities of the compounds are reported as a KD value (μM). Briefly, various concentrations of test peptides were mixed with 5 nM of the fluorescently labeled peptide (i.e., a mutated N-terminal Smac peptide-AbuRPF-K(5-Fam)-NH2) and 40 nM of the respective IAP BIR3 for 15 min at RT in […] of 0.1M Potassium Phosphate buffer, pH 7.5 containing […] bovine g-globulin. Following incubation, the polarization values (mP) were measured on a Victor2V™ (available from PerkinElmer® Life Sciences) using a 485 nm excitation filter and a 520 nm emission filter. The reported binding affinities (KD values) are supplied as ranges (A=<0.1 μM, B=0.1 μM to 1 μM, C=>1 μM to 10 μM, D=>10 μM).

Assay [3] deals with T2, XIAP BIR-3 (Homo sapiens, UniProt P98170).
T2 construct: 40 nM of the respective IAP BIR3
Put plainly: Fluorescence polarization binding to XIAP BIR-3 with labeled peptide AbuRPF-K(5-Fam)-NH2. Conditions: XIAP BIR-3, 40 nM BIR3, 5 nM labeled peptide, 15 min RT, pH 7.5; read-out: XIAP, nM (binding affinity KD, as range). Here is the method: as §1

Molecules are shown by their SMILES. Some results are limits rather than exact numbers.

T1 sequence (Q13490 253-363 limits assumed): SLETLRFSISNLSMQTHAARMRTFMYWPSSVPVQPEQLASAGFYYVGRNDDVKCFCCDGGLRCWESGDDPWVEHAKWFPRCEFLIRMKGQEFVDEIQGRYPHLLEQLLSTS
T2 sequence (P98170 241-356 limits assumed): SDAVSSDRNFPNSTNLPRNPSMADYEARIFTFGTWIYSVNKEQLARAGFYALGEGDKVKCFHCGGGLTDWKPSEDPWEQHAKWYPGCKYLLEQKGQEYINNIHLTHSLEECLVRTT

With `CNC(=O)N1C[C@H](C(=O)N[C@@H]2CCCc3ccccc32)[C@@H]2[C@H]1CCN2C(=O)[C@@H](NC(=O)[C@H](C)NC)C(C)(C)C` [Example 40, 4-[3,3-Dimethyl-2-(2-methylamino-propionylamino)-butyryl]-hexahydro-pyrrolo[3,2-b]pyrrole-1,3-dicarboxylic acid 1-methylamide 3-[(1,2,3,4-tetrahydro-naphthalen-1-yl)-amide]], the CC50 in assay [1] was below 100 nM. Also, the Kd in assay [2] and in assay [3] was below 100 nM each time.
For `CN[C@@H](C)C(=O)N[C@H](C(=O)N1CC[C@@H]2[C@H]1[C@@H](C(=O)N1CCc3ccccc31)CN2S(C)(=O)=O)C1CCCCC1` [Example 15, N-{1-Cyclohexyl-2-[6-(2,3-dihydro-indole-1-carbonyl)-4-methanesulfonyl-hexahydro-pyrrolo[3,2-b]pyrrol-1-yl]-2-oxo-ethyl}-2-methylamino-propionamide], in assay [1], the CC50 was below 100 nM. The dissociation constant Kd in assay [2] and in assay [3] was 100 to 1000 nM each time.
`CN[C@@H](C)C(=O)N[C@H](C(=O)N1CC[C@@H]2[C@H]1[C@@H](C(=O)N[C@@H](Cc1ccccc1)C(=O)O)CN2S(C)(=O)=O)C1CCCCC1` [Example 30, 2-({4-[2-Cyclohexyl-2-(2-methylamino-propionylamino)-acetyl]-1-methanesulfonyl-octahydro-pyrrolo[3,2-b]pyrrole-3-carbonyl}-amino)-3-phenyl-propionic acid]: the CC50 in assay [1] is 1000 to 10000 nM. The Kd in assay [2] is below 100 nM; in assay [3], 1000 to 10000 nM.
On to `CN[C@@H](C)C(=O)N[C@H](C(=O)N1CC[C@@H]2[C@H]1[C@@H](C(=O)N[C@@H]1CCCc3ccccc31)CN2c1ncccn1)C1CCCCC1` [Example 43, 4-[2-Cyclohexyl-2-(2-methylamino-propionylamino)-acetyl]-1-pyrimidin-2-yl-octahydro-pyrrolo[3,2-b]pyrrole-3-carboxylic acid (1,2,3,4-tetrahydro-naphthalen-1-yl)-amide], for which the CC50 in assay [1] was below 100 nM. For the same molecule, the Kd in assay [2] was below 100 nM; in assay [3] it was 100 to 1000 nM.
Take `CN[C@@H](C)C(=O)N[C@H](C(=O)N1CC[C@@H]2[C@H]1[C@@H](C(=O)N1Cc3ccccc3C1)CN2S(C)(=O)=O)C1CCCCC1` [Example 13, N-{1-Cyclohexyl-2-[6-(1,3-dihydro-isoindole-2-carbonyl)-4-methanesulfonyl-hexahydro-pyrrolo[3,2-b]pyrrol-1-yl]-2-oxo-ethyl}-2-methylamino-propionamide]: the CC50 in assay [1] is below 100 nM. Further, the equilibrium dissociation constant (Kd) in assay [2] and in assay [3] was below 100 nM each time.
In the case of `CN[C@@H](C)C(=O)N[C@H](C(=O)N1CC[C@@H]2[C@H]1[C@@H](C(=O)Nc1cccc3ncccc13)CN2S(C)(=O)=O)C(C)(C)C` [Example 47, 4-[3,3-Dimethyl-2-(2-methylamino-propionylamino)-butyryl]-1-methanesulfonyl-octahydro-pyrrolo[3,2-b]pyrrole-3-carboxylic acid quinolin-5-ylamide], in assay [1], the CC50 was below 100 nM. Besides, the equilibrium dissociation constant (Kd) in assay [2] and in assay [3] was below 100 nM each time.
Turning to `CN[C@@H](C)C(=O)N[C@H](C(=O)N1CC[C@@H]2[C@H]1[C@@H](C(=O)N[C@@H](C)C1CCCCC1)CN2S(C)(=O)=O)C(C)(C)C` [Example 28, 4-[3,3-Dimethyl-2-(2-methylamino-propionylamino)-butyryl]-1-methanesulfonyl-octahydro-pyrrolo[3,2-b]pyrrole-3-carboxylic acid (1S-cyclohexyl-ethyl)-amide], the CC50 in assay [1] was below 100 nM. In addition, the Kd in assay [2] and in assay [3] was below 100 nM each time.
As to `CN[C@@H](C)C(=O)N[C@H](C(=O)N1CC[C@@H]2[C@H]1[C@@H](C(=O)N(C)Cc1ccccc1)CN2S(C)(=O)=O)C1CCCCC1` [Example 9, 4-[2-Cyclohexyl-2-(2-methylamino-propionylamino)-acetyl]-1-methanesulfonyl-octahydro-pyrrolo[3,2-b]pyrrole-3-carboxylic acid benzyl-methyl-amide], the CC50 in assay [1] lay within 100 to 1000 nM. Moreover, the Kd in assay [2] and in assay [3] was below 100 nM in each case.
As for `CN[C@@H](C)C(=O)N[C@H](C(=O)N1CC[C@@H]2[C@H]1[C@@H](C(=O)Nc1ccccc1)CN2S(C)(=O)=O)C(C)(C)C` [Example 22, 4-[3,3-Dimethyl-2-(2-methylamino-propionylamino)-butyryl]-1-methanesulfonyl-octahydro-pyrrolo[3,2-b]pyrrole-3-carboxylic acid phenylamide], the CC50 in assay [1] was below 100 nM. The Kd in assay [2] and in assay [3] was below 100 nM in each case.
On to `CN[C@@H](C)C(=O)N[C@H](C(=O)N1CC[C@@H]2[C@H]1[C@@H](C(=O)Nc1cccc3cccnc13)CN2S(C)(=O)=O)C(C)(C)C` [Example 46, 4-[3,3-Dimethyl-2-(2-methylamino-propionylamino)-butyryl]-1-methanesulfonyl-octahydro-pyrrolo[3,2-b]pyrrole-3-carboxylic acid quinolin-8-ylamide], for which the CC50 in assay [1] was below 100 nM. The dissociation constant Kd in assay [2] is below 100 nM; in assay [3], 100 to 1000 nM.
For the molecule `CN[C@@H](C)C(=O)N[C@H](C(=O)N1CC[C@@H]2[C@H]1[C@@H](C(=O)Nc1cc(C)nn1-c1ccccc1)CN2S(C)(=O)=O)C(C)(C)C` [Example 26, 4-[3,3-Dimethyl-2-(2-methylamino-propionylamino)-butyryl]-1-methanesulfonyl-octahydro-pyrrolo[3,2-b]pyrrole-3-carboxylic acid (5-methyl-2-phenyl-2H-pyrazol-3-yl)-amide], in assay [1], the CC50 fell in the range of 100 to 1000 nM. The Kd in assay [2] and in assay [3] was below 100 nM each time.
`CN[C@@H](C)C(=O)N[C@H](C(=O)N1CC[C@@H]2[C@H]1[C@@H](C(=O)N[C@H](C)C1CCCCC1)CN2S(C)(=O)=O)C(C)(C)C` [Example 29, 4-[3,3-Dimethyl-2-(2-methylamino-propionylamino)-butyryl]-1-methanesulfonyl-octahydro-pyrrolo[3,2-b]pyrrole-3-carboxylic acid (1R-cyclohexyl-ethyl)-amide]: the CC50 in assay [1] was 1000 to 10000 nM. The Kd is below 100 nM in assay [2] and 1000 to 10000 nM in assay [3].
Turning to `CN[C@@H](C)C(=O)N[C@H](C(=O)N1CC[C@@H]2[C@H]1[C@@H](C(=O)N[C@H]1CCCc3ccccc31)CN2S(C)(=O)=O)C1CCCCC1` [Example 4, 4-[2-Cyclohexyl-2-(2-methylamino-propionylamino)-acetyl]-1-methanesulfonyl-octahydro-pyrrolo[3,2-b]pyrrole-3-carboxylic acid (1,2,3,4-tetrahydro-naphthalen-1-yl)-amide], in assay [1], the CC50 lay in the range of 100 to 1000 nM. Also, the Kd in assay [2] and in assay [3] was below 100 nM each time.
Turning to `CN[C@@H](C)C(=O)N[C@H](C(=O)N1CC[C@@H]2[C@H]1[C@@H](C(=O)NCc1ccc(F)cc1)CN2S(C)(=O)=O)C(C)(C)C` [Example 21, 4-[3,3-Dimethyl-2-(2-methylamino-propionylamino)-butyryl]-1-methanesulfonyl-octahydro-pyrrolo[3,2-b]pyrrole-3-carboxylic acid 4-fluoro-benzylamide], the CC50 in assay [1] is below 100 nM. The equilibrium dissociation constant (Kd) in assay [2] and in assay [3] was below 100 nM each time.
